# Columns and labels:
# Format in all cases: cell-based
# [1] = system: Listeria innocua (ATCC 33090); test: Attached cells on vegetable and fruit surface (Example 7); details: Whole Strawberry, 45 sec
# Description: (§1) Inoculum preparation: ATCC freeze dried culture was rehydrated in 10 mL of sterilized tryptic soy broth and mixed homogeneously. 0.1 mL of the stock solution was transferred to 10 mL of TSB and incubated at 37C for 24 h. Enrichment was streaked to confirm purity. 2 mL of the enriched stock was transferred to 200 mL of TSB and incubated at 37C for 24 h and 36 h, respectively for E. coli K-12 (ATCC 25253) (EC) and Listeria innocua (ATCC 33090) (LI) resulting in ˜10^8 cfu/mL stationary phase culture stock. The stock was cooled for at 4C for 1 h. Microbial population of the stationary phase stock culture was enumerated by means of serial dilution with 9-mL Butterfield phosphate buffer tubes and spread plating on Tryptic Soy Agar (TSA) pre-poured agar plates for EC or Modified Oxford Agar (MOX) pre-poured agar plates for LI.
# (§2) Vegetable and fruit surface inoculation: The 200 mL˜10^8 cfu/mL stock culture solution was homogeneously mixed by shaking and swirling the Erlenmeyer flask. The 200 mL culture was separated into 4 centrifuge tubes (50 mL each) and centrifuged at 10,000 rpm and 4C for 15 min. The stock culture pellet was re-suspended with 5 mL of 5% Horse Serum. All the re-suspended cultures from the four centrifuge tubes were combined to form 20 mL˜10^9 cfu/mL inoculating stock culture. The outer peel or surface of the test vegetable and fruit was cut into 5cm×2.5 cm pieces or diced into […] cubes in the case of tomatoes for inoculation. 50 uL inoculum in the form of 2 uL droplets were spiked onto the strawberry, and diced tomato surface while 100 uL in the form of 2 uL droplets were inoculated onto the potato peel. The spiked surfaces or peels were placed in a biological safety cabinet for 60 min at 18 to 24C for drying.
# (§3) Treatment of inoculated vegetable and fruit surfaces: Each sample of inoculated vegetable or fruit surface was placed into a 2.5L stomacher bag containing 500 mL of the tested solution and shook vigorously for 45 s. The tested solutions included city water, lactic acid solution (LA), peracetic acid solution (PA), and FreshRinse solution (FR). The treated vegetable or fruit surface was immediately transferred into a sterile stomacher bag containing 100 mL of Butterfield phosphate buffer with 1 sodium thiosulfate pellet at the end of the 45 s treatment. Each solution treatment was performed in duplications. The reduction for each solution treatment was compared to that of the city water treatment.
# [2] = system: E. coli K-12 (ATCC 25253); test: as above; details: 45 sec
# Description: as §1, §2, §3
# Listeria innocua = test: Attached cells challenge test on produce leaves (Example 1)
# [3] = system: E. coli K-12 (ATCC 25253); test: Attached cells on chicken wing skin (Example 8); details: Middle chicken wing skin, 10.5 min
# Description: as §1, with “TSB” for “tryptic soy broth”, “h” for “h and 36 h, respectively”, “(EC)” for “(EC) and Listeria innocua (ATCC 33090) (LI)”, “cooled” for “cooled for”, “EC” for “EC or Modified Oxford Agar (MOX) pre-poured agar plates for LI.”
# Chicken wing surface inoculation: The 200 mL ˜10^8cfu/mL stock culture solution was homogeneously mixed by shaking and swirling the Erlenmeyer flask. The 200 mL culture was separated into 4 centrifuge tubes (50 mL each) and centrifuged at 10,000 rpm and 4C for 15 min. The stock culture pellet was re-suspended with 5 mL of 5% Horse Serum. All the re-suspended cultures from the four centrifuge tubes were combined to form 20 mL˜10^9 cfu/mL inoculating stock culture. The chicken middle wing was pat dried by paper towel. A permanent marker was used to mark a 2.5 cm×2.5 cm square at the middle of the flat surface of the chicken wing for inoculation. 50 uL inoculum in the form of 2 uL droplets were spiked onto the marked square on the chicken wing skin. The inoculated chicken wing was placed into a sterile polypropylene basket. The spiked chicken wing inside the polypropylene basket was dried inside a biological safety cabinet for 120 min at 18 to 24C.
# Treatment of inoculated chicken wing: Each sample of inoculated chicken wing was placed into a 2.5L stomacher bag containing 500 mL of the tested solution for 10 minutes with intermittent 30 s-shakings at 0, 4, and 9 min. The tested solutions included city water, lactic acid solution (LA), peracetic acid solution (PA), and FreshRinse solution (FR). The treated chicken wing was immediately removed from the treatment solution after 10 min and placed into a sterilized Petri-dish with the marked side facing up. A pre-wet sterilized swab dipped in 10 mL Butterfield phosphate buffer with sodium thiosulfate was used to swab the marked area. After swabbing the cotton wool swab was immediately placed back into the 10 mL Butterfield phosphate buffer with sodium thiosulfate and mixed. One mL was immediately transferred from the aforementioned tube to a 9 mL Butterfield phosphate buffer. The total treatment time including the exposure time, the swabbing time, and the transfer time was 10.5 min. Each solution treatment was performed in duplications. The reduction for each solution treatment was compared to that of the city water treatment
structure (smiles),measurement,setting,value
"CC(=O)OO [Peroxyacetic acid, peroxyacetic acid]",Log reductions,"[1]; PA 50 ppm, LA 0 ppm",1.1
same,Log reductions,"[2]; Diced Tomato, PA 60 ppm, LA 0 ppm",0.6
same,Log reductions,"[2]; Diced Tomato, PA 80 ppm, LA 0 ppm",0.7
same,Log reductions,"[2]; Potato peel, PA 60 ppm, LA 0 ppm",1.0
same,Log reductions,"[2]; Potato peel, PA 80 ppm, LA 0 ppm",1.2
same,"Log reduction, attached cells","Listeria innocua; Romaine, PAA 60 ppm, LA 0.0%",0.6
same,"Log reduction, attached cells","Listeria innocua; Romaine, PAA 70 ppm, LA 0.0%",1.0
same,"Log reduction, attached cells","Listeria innocua; Romaine, PAA 80 ppm, LA 0.0%",1.7
same,"Log reduction, attached cells","Listeria innocua; Spinach, PAA 60 ppm, LA 0.0%",0.3
same,"Log reduction, attached cells","Listeria innocua; Spinach, PAA 70 ppm, LA 0.0%",0.5
same,"Log reduction, attached cells","Listeria innocua; Spinach, PAA 80 ppm, LA 0.0%",1.2
same,Log reductions,"[3]; PA 40 ppm, LA 0 ppm",0.6
same,Log reductions,"[3]; PA 60 ppm, LA 0 ppm",0.5
same,Log reductions,"[3]; PA 80 ppm, LA 0 ppm",1.0
"CC(O)C(=O)O (stereo not shown) [Lactic Acid, lactic acid]",Log reductions,"[1]; PA 0 ppm, LA 1,500 ppm",0.0
same,Log reductions,"[1]; PA 0 ppm, LA 3,000 ppm",0.5
same,Log reductions,"[2]; Diced Tomato, PA 0 ppm, LA 1,500 ppm",0.1
same,Log reductions,"[2]; Diced Tomato, PA 0 ppm, LA 3,000 ppm",0.0
same,Log reductions,"[2]; Potato peel, PA 0 ppm, LA 1,500 ppm",0.1
same,Log reductions,"[2]; Potato peel, PA 0 ppm, LA 3,000 ppm",0.0
same,"Log reduction, attached cells","Listeria innocua; Romaine, PAA 0 ppm, LA 0.6%",1.1
same,"Log reduction, attached cells","Listeria innocua; Romaine, PAA 0 ppm, LA 0.9%",1.4
same,"Log reduction, attached cells","Listeria innocua; Romaine, PAA 0 ppm, LA 1.2%",1.5
same,"Log reduction, attached cells","Listeria innocua; Spinach, PAA 0 ppm, LA 0.6%",0.1
same,"Log reduction, attached cells","Listeria innocua; Spinach, PAA 0 ppm, LA 0.9%",0.2
same,"Log reduction, attached cells","Listeria innocua; Spinach, PAA 0 ppm, LA 1.2%",0.2
same,Log reductions,"[3]; PA 0 ppm, LA 5,000 ppm",0.3
same,Log reductions,"[3]; PA 0 ppm, LA 10,000 ppm",0.7

# From patent US20130065959A1, “SANITIZING MEAT WITH PERACID AND 2-HYDROXY ORGANIC ACID COMPOSITIONS” (Fresh Express Incorporated, priority 2009, published 2013)
